Experimental data taken from patent US20040010018A1, “Treatment of neuropathic pain” (priority 2002, published 2004).
Entries after “also recorded” stand apart in the source; their conditions may differ. Where a name gives a salt, the structure may show the parent alone.

Assays:
[1] = given systemically (i.p.); cited from earlier work
[2] = tested on: neuropathic pain (mechanical allodynia); assay: mechanical allodynia (von Frey) in the rat spinal nerve ligation model of neuropathic pain; assay type: in vivo; settings: for effect of antagonist pretreatment on A-85380 induced anti-allodynia: A-85380 0.75 μmol/kg i.p.
Excerpt: Under halothane anesthesia, the L5 and L6 spinal nerves were tightly ligated in the manner described previously by Chung et al. (Kim S. H., Chung J. M., An experimental model for peripheral neuropathy produced by segmental spinal nerve ligation in the rat. Pain 1992; 50:355-363.). Briefly, an incision was made on the dorsal portion of the hip, and the muscle was blunt dissected to reveal the spinal processes. The L6 transverse process was removed, and the left L5 and L6 spinal nerves were tightly ligated with 5.0 braided silk suture. The wound was cleaned, the membrane sewn with 4.0 dissolvable Vicryl suture and the skin closed with wound clips.
Implantation of the DRG catheters was performed immediately following nerve ligation, with animals maintained under halothane for the entire procedure (35-40 minutes). Catheters were constructed of PE 20 with small pieces of tygon tubing cemented along the catheter to allow for suture anchoring points during surgery. The left L5 DRG was exposed by removing the posterior articular process of the L5 vertebra. Gelfoam was inserted into the cavity to prevent the catheter from damaging the ganglion. The catheter was sutured to the muscle and fascia, then run subcutaneously to exteriorize between the shoulder blades. Saline was infused into the catheter, and it was heat sealed.
The implantation of i.c.v. cannulae were conducted under sodium pentobarbital (50 mg/kg, i.p. Nembutal) anesthesia with nerve ligation occurring just after the implantation; animals were maintained under anesthesia for the entire procedure (40-45 minutes). Animals were implanted with a 22 gauge guide cannulae (Plastics One, Roanoke Va.) cut to 6 mm. The stereotaxic coordinates from bregma were 1.0 mm posterior, 1.6 mm lateral, and 4.5 ventral (Paxinos G. and Watson C., The rat brain in stereotaxic coordinates. New York: Academic Press, 1997). Three skull screws were attached for stability, and the implant was covered with cranioplastic acrylic.
For i.c.v. (intracerebroventricular) infusion, chlorisondamine (10 μg) was dissolved in 5 μl phosphate buffered saline and infused by syringe pump at a rate of 5 μl/min. The infusion was performed 24 hours prior to testing in order to reduce stress to the animals immediately prior to behavioral testing.
For all other routes of administration including intraperotineal (i.p.), intradermal (i.d.) or onto the DRG, chlorisondamine was dissolved in saline. The final volumes for i.p. injections were 1 ml/kg, for i.d. were 50 μl and for DRG injections were 10 μl. All injections were made by hand held syringe.
For the assessment of neuropathic pain, mechanical allodynia in the affected paw of animals who had undergone spinal nerve ligation was evaluated using von Frey filaments. As described previously (Chaplan et al, Quantitative assessment of tactile allodynia in the rat paw. J Neurosci Meth, 1994; 53:55-62), two weeks following surgery, rats were acclimated to the testing box which was constructed of plexiglass with a wire mesh floor to allow access to the planter surface of the hind paws. Using the Dixons Up-Down method, a baseline level of allodynia was taken with allodynia defined as a withdrawal threshold <4 g. Test compounds were then administered and subsequent withdrawal thresholds determined.
For spinal nerve ligation experiments, the timing of antagonist administration depended upon the route of administration. With i.c.v. administration, chlorisondamine or its vehicle was given 24 hours prior to further manipulation. On the day of the experiment, a baseline allodynia score was determined and then A-85380 or its vehicle control was given and measures taken at 15, 30 and 60 minutes post agonist injection. Dose response curves for i.p., i.d. and DRG administration were also determined using this time line. […]

[3] = observed side effects / behaviors after injection in neuropathic rats; assay type: in vivo, rat
acute thermal pain [4] = assay: rat paw withdrawal model of acute thermal pain using neuropathic rats; assay type: in vivo; settings: chlorisondamine 0.4 μmol/kg i.p., A-85380 0.75 μmol/kg i.p.
Excerpt: (§1) For the assessment of acute pain, a paw thermal stimulator was used to evaluate nociceptive responses to an acute thermal stimulus (Anesthesiology Research Laboratory, Department of Anesthesiology, University of California at San Diego, La Jolla, Calif.). The device and behavioral procedure have been described previously (Hargreaves et al., A new and sensitive method for measuring thermal nociception in cutaneous hyperalgesia, Pain 1988, 32:77-88; Dirig et al., Characterization of variables defining hind paw withdrawal latency evoked by radiant thermal stimuli, J. Neurosci. Meth. 1997; 76:183-191). Briefly, rats were placed in Plexiglas boxes on a glass surface maintained at 30° C. and allowed to acclimate for 30 minutes. The measured nociceptive response was the latency to withdraw the hind paw when heated by light from a focused projector lamp (current set at 4.8 A). The final score was the mean of the latencies for the left and right paw. To avoid tissue damage, the maximal response latency prior to automatic shutoff of the lamp was 20.5 sec.
(§2) For acute thermal pain experiments, a baseline withdrawal threshold was determined, and then chlorisondamine or its vehicle was administered. […]
To address this concern, neuropathic rats were assessed in the acute thermal model of paw withdrawal. […]

acute thermal pain [5] = assay: rat paw withdrawal model of acute thermal pain, normal rats; assay type: in vivo; settings: chlorisondamine 0.4 μmol/kg i.p. 30 min prior, A-85380 0.75 μmol/kg i.p.
Excerpt: as §1, with “To avoid tissue damage, the maximal response latency prior to automatic shutoff of the lamp was 20.5 sec.” left out
as §2
The effect of systemically administered chlorisondamine in a model of acute thermal pain was examined. […] The effect of systemically administered chlorisondamine (0.4 μmol/kg, i.p.) on A-85380 (0.75 μmol/kg, i.p.) was assessed.

persistent pain = assay: formalin model of persistent pain (phase two); assay type: in vivo, rat; settings: A-85380 0.75 μmol/kg i.p.
Description: The formalin test was used as an assessment of persistent pain. The method, described previously (Bannon et al. 1998) is briefly as follows. Following acclimation to the test environment, 50 μl of a 5% formalin solution was injected subcutaneously into the dorsal surface of one of the rear paws. Only phase two, defined as the 20 minute period from 30 to 50 minutes post formalin injection, was scored for nocifensive behaviors including flinching, licking, and biting.
For formalin experiments, chlorisondamine or its vehicle was infused either 24 h or 40-50 minutes prior to further manipulation. A-85380 was then injected and, 5 minutes later, formalin was injected into the paw. Measures were taken between 30 and 50 minutes post formalin injection.
The effect of centrally and systemically administered chlorisondamine in a model of persistent pain was examined. Using phase two of the formalin model of persistent pain, chlorisondamine (10 μg) was administered i.c.v. 24 hours prior to the systemic administration of A-85380.

[6] = chlorisondamine 10 μg i.c.v. 24 hours prior

Cl.Cl.c1cncc(OC[C@@H]2CCN2)c1 [A-85380, 3-(2(S)-azetidinylmethoxy)pyridine dihydrochloride]
crossing of the blood brain barrier [1]: readily crosses the blood brain barrier | anti-allodynia (paw withdrawal threshold) ([2]; 10 μg infused onto the L5 DRG): significant anti-allodynia | duration of anti-allodynia ([2]; 10 μg infused onto the L5 DRG): 15 min | anti-allodynia (paw withdrawal threshold) ([2]; 20 μg infused onto the L5 DRG): significant anti-allodynia | duration of anti-allodynia ([2]; 20 μg infused onto the L5 DRG): 30 min | anti-allodynia in the affected paw (paw withdrawal threshold) ([2]; 10, 20 and 50 μg/rat i.d. into plantar surface of contralateral (unaffected) paw, dihydrochloride): all three doses of A-85380 induced a significant anti-allodynia; also recorded: equivalent or greater anti-allodynia | anti-allodynia in the affected paw (paw withdrawal threshold) ([2]; 10, 20 and 50 μg/rat i.d. into plantar surface of ipsalateral (affected) paw, dihydrochloride): only the 50 μg dose of A-85380 had an anti-allodynic effect; also recorded: small but significant anti-allodynia | dose required for significant reduction in allodynia ([2]; central NNRs blocked with chlorisondamine 10 μg i.c.v.): 3 µmol/kg | reduction in allodynia with peripheral NNRs blocked ([2]; chlorisondamine 0.4 μmol/kg i.p. pretreatment, systemic A-85380): significant reduction in allodynia | reduction in allodynia with central NNRs blocked ([2]; chlorisondamine 10 μg i.c.v. pretreatment, systemic A-85380): significant reduction in allodynia | potency to increase paw withdrawal threshold, i.p. compared with i.d. administration ([2]; doses converted to equivalent systemic dose, 15 minute time point): similar | potency to increase paw withdrawal threshold, DRG administration compared with i.p. and i.d. ([2]; doses converted to equivalent systemic dose, 15 minute time point, dihydrochloride): decidedly more potent; also recorded: most potent | dose required for significant reduction in allodynia ([2]; given without an antagonist): 0.75 µmol/kg | anti-allodynia (paw withdrawal threshold) ([2]; infused directly onto the L5 DRG, different doses): dose-dependent anti-allodynic effect | dose required for significant reduction in allodynia ([2]; peripheral NNRs blocked with chlorisondamine 0.4 μmol/kg i.p.): 1.5 µmol/kg | anti-allodynia (paw withdrawal threshold) ([2]; systemically administered (i.p.), no antagonist, dihydrochloride): significant, dose-dependent decrease; also recorded: dose dependent anti-allodynia; also recorded: dose-dependent anti-allodynia | behaviors induced immediately following injection ([3]; 0.5-1.0 μmol/kg, i.p.): prostration and ataxia | time point by which prostration and ataxia abated ([3]; 0.5-1.0 μmol/kg, i.p.): ≤ 15 min | side effects with peripheral NNRs blocked ([3]; chlorisondamine 0.4 μmol/kg i.p. pretreatment, A-85380 at increased dose): significant increase in side effects | side effects with central NNRs blocked ([3]; chlorisondamine 10 μg i.c.v. pretreatment, A-85380 at increased dose): almost no side effects | side effects accompanying the reduction in allodynia ([3]; given systemically (i.p.), no antagonist): prostration, ataxia, bracing and dyspnea

O=C(NO)c1cncc(N2C[C@H]3CNC[C@H]32)c1 [A-420503, (IR, 5S) 5-(3,6-diazabicyclo [3.2.0]hept-6-yl)-N-hydroxy-nicotinamide]
anti-allodynia ([2]; 62 μmol/kg, i.p.): significant anti-allodynia | effects at the DRG after pretreatment with an NMR antagonist ([2]; DRG administration): blocked | anti-allodynia ([2]; at the DRG, equivalent to 4.77 μmol/kg i.p.): significant anti-allodynia | side effects ([3]; 62 μmol/kg, i.p.): without any notable side effects

C[N+](C)(C)CCCCCC[N+](C)(C)C [Hexamethonium, hexamethonium]
effect of antagonist pretreatment on A-85380 induced anti-allodynia ([2]; hexamethonium 19 μmol/kg i.p. 30 minutes prior): blocked

CNC1(C)C2CCC(C2)C1(C)C (stereo not drawn) [Mecamylamine, mecamylamine hydrochloride]
effect of antagonist pretreatment on A-85380 induced anti-allodynia ([2]; mecamylamine 1 μmol/kg i.p. 30 minutes prior, hydrochloride): completely blocked | effect of antagonist pretreatment on A-85380 induced anti-allodynia ([2]; mecamylamine 1 μmol/kg i.p. 30 minutes prior, listed as mecamylamine, hydrochloride): full blockade | effect of antagonist pretreatment on prostration and ataxia following A-85380 injection ([3]; mecamylamine 1 μmol/kg i.p. 30 minutes prior to A-85380): blocked

C[N+](C)(C)CC[N+]1(C)Cc2c(Cl)c(Cl)c(Cl)c(Cl)c2C1 [chlorisondamine, chlorisondamine diiodide]
effect of antagonist pretreatment on A-85380 induced antinociception (paw withdrawal latency) (acute thermal pain [4]): did not alter; also recorded: does not alter | effect of antagonist pretreatment on A-85380 induced anti-allodynia ([2]; chlorisondamine 0.4 μmol/kg i.p. 30 minutes prior): completely blocked | effect of antagonist pretreatment on anti-allodynia induced by A-85380 infused onto the DRG ([2]; chlorisondamine 0.4 μmol/kg i.p. 30 minutes prior, A-85380 20 μg onto DRG): completely blocked | effect of antagonist pretreatment on A-85380 induced anti-allodynia [2, 6]: completely blocked | effect of antagonist pretreatment on A-85380 induced antinociception (paw withdrawal latency) (acute thermal pain [5]): no effect; also recorded: completely ineffective | effect of antagonist pretreatment on A-85380 induced analgesia (flinches, phase two) (persistent pain; chlorisondamine 0.4 μmol/kg i.p. 40-50 minutes prior to formalin): no significant attenuation; also recorded: no significant effect | effect of antagonist pretreatment on A-85380 induced analgesia (flinches, phase two) (persistent pain; [6]): completely blocked
